Experiments:
[1] = system: K/2785 virus (A/Korea/2785/2009); assay type: cell-based, 2009 pandemic H1N1 oseltamivir-resistant variant
[2] = target: K/2785 virus (A/Korea/2785/2009) neuraminidase (NA H275Y) (Influenza A virus, UniProt C5MQP8, H275Y); assay type: biochemical, 2009 pandemic H1N1 oseltamivir-resistant variant

SMILES	EC50 [1]	IC50 [2]	higher concentration needed compared with K/09 virus [2]
NC(=O)c1nc(F)cnc1O [Favipiravir, 6-fluoro-3-hydroxy-2-pyrazinecarboxamide]	10.8 µM		
CCC(CC)[C@H](NC(C)=O)[C@@H]1[C@H](O)[C@@H](C(=O)O)C[C@H]1N=C(N)N [Peramivir]		0.0298 µM	more than 20 fold

From publication PMC4081560 (PLoS ONE, 2014)
